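Where inhibition never reached the appropriate level, the endpoint shown equals the highest concentration tested. Otherwise, values were interpolated linearly from a five-concentration, 48-hour dose response in 96-well plates. GI50: concentration for 50% inhibition of growth.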 The source made the active and inactive calls. Cut-off read from the data, not from the text of the source: active = GI50 up to about 1.1 µM and inactive = higher.
Columns and labels:
Assay in all cases: NCI-60 cell line screen, 48 h
[1] = test system: SR
[2] = test system: EKVX
[3] = test system: HT-29
[4] = test system: OVCAR-4
[5] = test system: SK-MEL-2
[6] = test system: COLO 205
[7] = test system: ACHN
[8] = test system: NCI/ADR-RES
[9] = test system: HCT-15
[10] = test system: MCF7
[11] = test system: MDA-MB-435
[12] = test system: UO-31
[13] = test system: NCI-H460
[14] = test system: NCI-H226
[15] = test system: NCI-H23
[16] = test system: SK-MEL-5
[17] = test system: A549
[18] = test system: SF-539
[19] = test system: OVCAR-3
[20] = test system: SNB-75
[21] = test system: Hs-578T
[22] = test system: IGROV-1
[23] = test system: HOP-62
[24] = test system: CAKI-1
[25] = test system: DU-145
[26] = test system: M14
[27] = test system: SF-268
[28] = test system: T47D
[29] = test system: RPMI-8226
[30] = test system: HL-60
[31] = test system: SK-OV-3
[32] = test system: HCC 2998
[33] = test system: UACC-257
[34] = test system: OVCAR-5
[35] = test system: TK-10
[36] = test system: PC-3
[37] = test system: SW-620
[38] = test system: SN12C
[39] = test system: HOP-92
[40] = test system: KM12
[41] = test system: OVCAR-8
[42] = test system: 786-0
[43] = test system: HCT-116
[44] = test system: RXF 393
[45] = test system: NCI-H522
[46] = test system: Malme-3M
[47] = test system: BT-549
[48] = test system: CCRF-CEM
[49] = test system: SK-MEL-28
[50] = test system: LOX IMVI
[51] = test system: UACC-62
[52] = test system: SF-295
[53] = test system: MDA-N
[54] = test system: U-251
[55] = test system: SNB-19
[56] = test system: A498
[57] = test system: K562
[58] = test system: MOLT-4
[59] = test system: MDA-MB-231

CCCCCC(O)(CCCCC)CCCCCCCCC1=C(O)C(=O)c2ccccc2C1=O
GI50 [1]: 3.44 µM (inactive) | GI50 [2]: 10.7 µM (inactive) | GI50 [3]: 14.1 µM (inactive) | GI50 [4]: 9.79 µM (inactive) | GI50 [5]: 12.1 µM (inactive) | GI50 [6]: 20.7 µM (inactive) | GI50 [7]: 8.85 µM (inactive) | GI50 [8]: 4.4 µM (inactive) | GI50 [9]: 4.18 µM | GI50 [10]: 9.62 µM (inactive) | GI50 [11]: 8.53 µM (inactive) | GI50 [12]: 10.3 µM (inactive) | GI50 [13]: 5.28 µM (inactive) | GI50 [14]: 14 µM (inactive) | GI50 [15]: 8.15 µM (inactive) | GI50 [16]: 3.62 µM (inactive) | GI50 [17]: 9.64 µM (inactive) | GI50 [18]: 11.2 µM (inactive) | GI50 [19]: 14.3 µM (inactive) | GI50 [20]: 28.1 µM (inactive) | GI50 [21]: 16.1 µM (inactive) | GI50 [22]: 6.08 µM (inactive) | GI50 [23]: 11.6 µM (inactive) | GI50 [24]: 12 µM (inactive) | GI50 [25]: 8.53 µM (inactive) | GI50 [26]: 10.8 µM (inactive) | GI50 [27]: 6.95 µM (inactive) | GI50 [28]: 26.4 µM (inactive) | GI50 [29]: 3.38 µM (inactive) | GI50 [30]: 3.51 µM (inactive) | GI50 [31]: 15.6 µM (inactive) | GI50 [32]: 16.6 µM (inactive) | GI50 [33]: 12.6 µM (inactive) | GI50 [34]: 20.5 µM (inactive) | GI50 [35]: 15 µM (inactive) | GI50 [36]: 7.5 µM (inactive) | GI50 [37]: 7.46 µM (inactive) | GI50 [38]: 9.04 µM (inactive) | GI50 [39]: 14.6 µM (inactive) | GI50 [40]: 5.62 µM (inactive) | GI50 [41]: 7.19 µM (inactive) | GI50 [42]: 6.32 µM (inactive) | GI50 [43]: 3.83 µM (inactive) | GI50 [44]: 12.9 µM (inactive) | GI50 [45]: 12.2 µM (inactive) | GI50 [46]: 11.5 µM (inactive) | GI50 [47]: 14.7 µM (inactive) | GI50 [48]: 6.12 µM (inactive) | GI50 [49]: 11.7 µM (inactive) | GI50 [50]: 4.97 µM (inactive) | GI50 [51]: 8.17 µM (inactive) | GI50 [52]: 7.91 µM (inactive) | GI50 [53]: 10.5 µM (inactive) | GI50 [54]: 7.73 µM (inactive) | GI50 [55]: 5.75 µM (inactive) | GI50 [56]: 13.3 µM (inactive) | GI50 [57]: 3.08 µM (inactive) | GI50 [58]: 3.33 µM (inactive) | GI50 [59]: 11.4 µM (inactive)

ClC1=C(Cl)C(Cl)(Cl)SS1
GI50 [1]: 1.73 µM (inactive) | GI50 [2]: > 10 µM (inactive) | GI50 [3]: > 10 µM (inactive) | GI50 [4]: > 5.93 µM (inactive) | GI50 [5]: > 10 µM (inactive) | GI50 [6]: 1.98 µM (inactive) | GI50 [7]: 5.98 µM (inactive) | GI50 [8]: > 7.21 µM (inactive) | GI50 [9]: > 7.82 µM | GI50 [10]: > 5.27 µM (inactive) | GI50 [11]: > 10 µM (inactive) | GI50 [12]: > 4.47 µM (inactive) | GI50 [13]: > 10 µM (inactive) | GI50 [14]: > 10 µM (inactive) | GI50 [15]: > 10 µM (inactive) | GI50 [16]: > 7.01 µM (inactive) | GI50 [17]: > 10 µM (inactive) | GI50 [18]: > 10 µM (inactive) | GI50 [19]: > 5.56 µM (inactive) | GI50 [20]: > 10 µM (inactive) | GI50 [21]: > 10 µM (inactive) | GI50 [22]: > 7 µM (inactive) | GI50 [23]: > 10 µM (inactive) | GI50 [24]: 2.96 µM (inactive) | GI50 [25]: > 10 µM (inactive) | GI50 [26]: 3.8 µM (inactive) | GI50 [27]: > 10 µM (inactive) | GI50 [28]: 4.79 µM (inactive) | GI50 [29]: 3.44 µM (inactive) | GI50 [30]: 2.24 µM (inactive) | GI50 [31]: > 10 µM (inactive) | GI50 [32]: > 10 µM (inactive) | GI50 [33]: > 5.09 µM (inactive) | GI50 [34]: > 10 µM (inactive) | GI50 [35]: > 5.86 µM (inactive) | GI50 [36]: > 10 µM (inactive) | GI50 [37]: 2.47 µM (inactive) | GI50 [38]: > 10 µM (inactive) | GI50 [39]: > 5.57 µM (inactive) | GI50 [40]: > 10 µM (inactive) | GI50 [41]: > 6.41 µM (inactive) | GI50 [42]: > 4.41 µM (inactive) | GI50 [43]: > 4.57 µM (inactive) | GI50 [44]: > 10 µM (inactive) | GI50 [45]: 2.88 µM (inactive) | GI50 [46]: 3.15 µM (inactive) | GI50 [47]: > 8.73 µM (inactive) | GI50 [48]: 0.879 µM (active) | GI50 [49]: > 10 µM (inactive) | GI50 [50]: > 4.15 µM (inactive) | GI50 [51]: > 10 µM (inactive) | GI50 [52]: > 10 µM (inactive) | GI50 [53]: 9.68 µM (inactive) | GI50 [54]: > 10 µM (inactive) | GI50 [55]: > 10 µM (inactive) | GI50 [56]: > 10 µM (inactive) | GI50 [57]: 3.17 µM (inactive) | GI50 [58]: 1.31 µM (inactive) | GI50 [59]: > 10 µM (inactive)

CN(C)/C=N/S(=O)(=O)c1nn2c(C=O)c(-c3cc4ccccc4oc3=O)nc2s1
GI50 [1]: 5.73 µM (inactive) | GI50 [2]: 10.4 µM (inactive) | GI50 [3]: 0.918 µM (active) | GI50 [4]: 8.38 µM (inactive) | GI50 [5]: 11.9 µM (inactive) | GI50 [6]: 1.91 µM (inactive) | GI50 [7]: 1.77 µM (inactive) | GI50 [8]: 16.4 µM (inactive) | GI50 [9]: 3.4 µM | GI50 [10]: 3.54 µM (inactive) | GI50 [11]: 5.25 µM (inactive) | GI50 [12]: 1.51 µM (inactive) | GI50 [13]: 19.3 µM (inactive) | GI50 [14]: 15.2 µM (inactive) | GI50 [15]: 9.68 µM (inactive) | GI50 [16]: 2.77 µM (inactive) | GI50 [17]: 13 µM (inactive) | GI50 [18]: 4.53 µM (inactive) | GI50 [19]: 3.08 µM (inactive) | GI50 [20]: 27.4 µM (inactive) | GI50 [21]: 15.6 µM (inactive) | GI50 [22]: 9.4 µM (inactive) | GI50 [23]: > 30.2 µM (inactive) | GI50 [24]: 1.75 µM (inactive) | GI50 [25]: 5.56 µM (inactive) | GI50 [26]: 7.83 µM (inactive) | GI50 [27]: 11.1 µM (inactive) | GI50 [28]: 4.09 µM (inactive) | GI50 [29]: 1.39 µM (inactive) | GI50 [30]: 1.61 µM (inactive) | GI50 [31]: 39.8 µM (inactive) | GI50 [32]: 19.5 µM (inactive) | GI50 [33]: 11.8 µM (inactive) | GI50 [34]: 14.6 µM (inactive) | GI50 [35]: 3.52 µM (inactive) | GI50 [36]: 12.4 µM (inactive) | GI50 [37]: 2.18 µM (inactive) | GI50 [38]: 5.92 µM (inactive) | GI50 [39]: 4.08 µM (inactive) | GI50 [40]: 12.1 µM (inactive) | GI50 [41]: 3.72 µM (inactive) | GI50 [42]: 1.92 µM (inactive) | GI50 [43]: 1.79 µM (inactive) | GI50 [44]: 2.58 µM (inactive) | GI50 [45]: 1.16 µM (inactive) | GI50 [46]: 1.95 µM (inactive) | GI50 [47]: 8.65 µM (inactive) | GI50 [48]: 0.276 µM (active) | GI50 [49]: 2.38 µM (inactive) | GI50 [50]: 2.65 µM (inactive) | GI50 [51]: 7.28 µM (inactive) | GI50 [52]: > 44.1 µM (inactive) | GI50 [53]: 4.46 µM (inactive) | GI50 [54]: 8.09 µM (inactive) | GI50 [55]: 39.4 µM (inactive) | GI50 [56]: 22.3 µM (inactive) | GI50 [57]: 1.58 µM (inactive) | GI50 [58]: 1.89 µM (inactive) | GI50 [59]: 10.7 µM (inactive)

— ChEMBL document CHEMBL1201862, “PubChem BioAssay data set” (2004)
